“And” between values parts separate entries of the source, which are not always exact repeats. Identical values can stand only once. Positions of bridges follow the written chain, without caps; N, C: chain ends. Non-standard residues stand in square brackets, D forms with d. Residues, ends and D or L forms follow the SMILES beside them.
Key:
[1] = test system: B16/F1 murine melanoma cells; assay: Cellular internalization and efflux; assay type: cell-based; parameters: concentration or dose not given beside the values; conditions: for Activity internalized in the B16/F1 cells: 25° C.; for Cellular efflux: activity remained inside the cells: 2 h after incubating cells in culture medium
Description: Cellular internalization and efflux of ^99mTc-RGD-Lys-(Arg^11)CCMSH was evaluated in B16/F1 cells as previously described by Miao et al (27). After being washed once with binding media, B16/F1 cells in 24-well cell culture plates were incubated at 25° C. for 20, 40, 60, 90 and 120 min (n=4) in the presence of approximately 200,000 cpm of HPLC purified ^99mTc-RGD-Lys-(Arg^11)CCMSH. After incubation, the reaction media were aspirated and the cells were rinsed twice with 0.5 ml of ice-cold pH 7.4, 0.2% BSA/0.01 M PBS. Cellular internalization of ^99mTc-RGD-Lys-(Arg^11)CCMSH was assessed by washing the cells with acidic buffer [40 mM sodium acetate (pH 4.5) containing 0.9% NaCl and 0.2% BSA] to remove the membrane-bound radioactivity. The remaining internalized radioactivity was obtained by lysing the cells with 0.5 ml of 1 N NaOH for 5 min. Membrane-bound and internalized ^99mTc activities were counted in a gamma counter. Cellular efflux of ^99mTc-RGD-Lys-(Arg^11)CCMSH was determined by incubating B16/F1 cells with ^99mTc-RGD-Lys-(Arg^11)CCMSH for 2 h at 25° C., removing non-specific-bound radioactivity with 2×0.5 ml of ice-cold pH 7.4, 0.2% BSA/0.01 M PBS rinse, and monitoring radioactivity released into cell culture media. At time points of […], the radioactivities in media, on cell surface and in cells were separately collected and counted in a gamma counter.
Cellular internalization and efflux of ^99mTc-RGD-Arg-(Arg^11)CCMSH was evaluated in B16/F1 cells as previously described by Yang et al (17). After being washed once with binding medium, B16/F1 cells in 24-well cell culture plates were incubated at 25° C. for 20, 40, 60, 90 and 120 min (n=3) in the presence of approximately 200,000 cpm of HPLC purified 99″Tc-RGD-Arg-(Arg^11)CCMSH. After incubation, the reaction medium was aspirated and the cells were rinsed twice with 0.5 mL of ice-cold pH 7.4, 0.2% BSA/0.01 M PBS. Cellular internalization of ^99mTc-RGD-Arg-(Arg^11)CCMSH was assessed by washing the cells with acidic buffer [40 mM sodium acetate (pH 4.5) containing 0.9% NaCl and 0.2% BSA] to remove the membrane-bound radioactivity. The remaining internalized radioactivity was obtained by lysing the cells with 0.5 mL of 1 N NaOH for 5 min. Membrane-bound and internalized ^99mTc activities were counted in a gamma counter. Cellular efflux of ^99mTc-RGD-Arg-(Arg^11)CCMSH was determined by incubating B16/F1 cells with ^99mTc-RGD-Arg-(Arg^11)CCMSH for 2 h at 25° C., removing non-specific-bound radioactivity with 2×0.5 mL of ice-cold pH 7.4, 0.2% BSA/0.01 M PBS rinse, and monitoring radioactivity released into cell culture medium. At time points of 20, 40, 60, 90 and 120 min, the radioactivities on cell surface and in cells were separately collected and counted in a gamma counter.

[2] = test system: B16/F1 murine melanoma cells; assay: Specificity of cellular uptake (peptide blockade); assay type: cell-based; conditions: rather than αvβ3 integrin-mediated
Description: The specificity of cell binding was determined by incubating ^99mTc-RGD-Lys-(Arg^11)CCMSH with or without non-radioactive peptides. After being washed once with binding media, B16/F1 cells in 24-well cell culture plates were incubated with approximately 200,000 cpm of HPLC purified ^99mTc-RGD-Lys-(Arg^11)CCMSH at 25° C. for 120 min (n=4) in the presence of 0.1 μM of RGD-Lys-(Arg^11)CCMSH, NDP-MSH, (Arg^11)CCMSH or RGD in 0.5 ml of binding media, respectively. The reaction media were aspirated after the incubation. The cells were rinsed twice with 0.5 ml of ice-cold pH 7.4, 0.2% BSA/0.01 M PBS and lysed in 0.5 ml of 1 N NaOH for 5 min. The activities associated with cells were measured in a gamma counter. Statistical analysis was performed using the Student's t-test for unpaired data.
The specificity of cellular uptake was determined by incubating ^99mTc-RGD-Arg-(Arg^11)CCMSH with or without non-radioactive peptides. After being washed once with binding medium, B16/F1 cells in 24-well cell culture plates were incubated with approximately 200,000 cpm of HPLC purified ^99mTc-RGD-Arg-(Arg^11)CCMSH at 25° C. for 120 min (n=3) in the presence of 0.1 μM of RGD-Arg-(Arg^11)CCMSH, (Arg^11)CCMSH, RGD or no peptide blockade in 0.5 mL of binding medium, respectively. The reaction medium was aspirated after the incubation. The cells were rinsed twice with 0.5 mL of ice-cold pH 7.4, 0.2% BSA/0.01 M PBS and lysed in 0.5 mL of 1 N NaOH for 5 min. The activities associated with cells were measured in a gamma counter.

B16/F1 melanoma = assay: SPECT/CT imaging of melanoma; assay type: in vivo, C57 mouse; conditions: 2 h post-injection
Description: (§1) A B16/F1 melanoma-bearing C57 mouse was injected with 10.4 MBq of ^99mTc-RGD-Lys-(Arg^11)CCMSH via the tail vein. The mouse was anesthetized with 1.5% isoflurane for small animal SPECT/CT (Nano-SPECT/CT®, Bioscan) imaging 2 h post-injection. The 9-min CT imaging was immediately followed by the SPECT imaging of whole-body. The SPECT scans of 24 projections were acquired and total acquisition time was approximately 45 min. After the SPECT imaging, the mouse was euthanized with CO2 inhalation. Reconstructed data from SPECT and CT were visualized and co-registered using InVivoScope (Bioscan, Washington D.C.).
as §1, with “6.1” for “10.4”, “^99mTc-RGD-Arg-(Arg^11)CCMSH” for “^99mTc-RGD-Lys-(Arg^11)CCMSH”, “9-min.” for “9-min”

Row | Compound | Activity internalized in the B16/F1 cells ([1]; 20 min post incubation) [%] | Cellular efflux: activity remained inside the cells [1] | Activity internalized in the B16/F1 cells ([1]; 2 h incubation) [%] | Mechanism of cellular uptake [2] | Visualization of flank melanoma tumors by SPECT/CT (B16/F1 melanoma)
1 | CC(C)[C@H](NC(=O)[C@@H]1CCCN1C(=O)[C@H](CCCNC(=N)N)NC(=O)[C@H](CS)NC(=O)[C@H](Cc1c[nH]c2ccccc12)NC(=O)[C@H](CCCNC(=N)N)NC(=O)[C@@H](Cc1ccccc1)NC(=O)[C@H](Cc1c[nH]cn1)NC(=O)[C@H](CCC(=O)O)NC(=O)[C@H](CS)NC(=O)[C@H](CS)NC(=O)[C@H](CCCNC(=N)N)NC(=O)[C@@H]1CC(=O)N[C@@H](CCCNC(=N)N)C(=O)NCC(=O)N[C@@H](CC(=O)O)C(=O)N[C@H](Cc2ccc(O)cc2)C(=O)N1)C(N)=O [^99mTc-RGD-Arg-(Arg^11)CCMSH, metal not drawn] (RGD[dY]DRCCEH[dF]RWCRPV-NH2; lactam N-5) | 62.35±4.08 | 58.99±2.03% | 81.36±0.96 | MC1 receptor-mediated | visualized clearly
2 | CC(C)[C@H](NC(=O)[C@@H]1CCCN1C(=O)[C@H](CCCNC(=N)N)NC(=O)[C@H](CS)NC(=O)[C@H](Cc1c[nH]c2ccccc12)NC(=O)[C@H](CCCNC(=N)N)NC(=O)[C@@H](Cc1ccccc1)NC(=O)[C@H](Cc1c[nH]cn1)NC(=O)[C@H](CCC(=O)O)NC(=O)[C@H](CS)NC(=O)[C@H](CS)NC(=O)[C@H](CCCCN)NC(=O)[C@@H]1CC(=O)N[C@@H](CCCNC(=N)N)C(=O)NCC(=O)N[C@@H](CC(=O)O)C(=O)N[C@H](Cc2ccc(O)cc2)C(=O)N1)C(N)=O [^99mTc-RGD-Lys-(Arg^11)CCMSH, metal not drawn] (RGD[dY]DKCCEH[dF]RWCRPV-NH2; lactam N-5) | – | 68.57±3.77% and ~69% | 85.93±1.22 | MC1 receptor-mediated | visualized clearly

Reference: patent US9005575B2, “Arg-Gly-Asp-conjugated alpha-melanocyte stimulating hormone hybrid peptide for use in diagnosing and treating melanoma, including metastatic melanoma and methods related to same” (STC.UNM, priority 2009, dated 2015)
